# Assay results reported in patent publication US5654303A, “Alkyl amine derivatives of substituted quinoxaline 2,3-diones as glutamate receptor antagonists” (Warner-Lambert Company, priority 1995, dated 1997).
# Key:
# AMPA receptors = experiment: AMPA receptor binding (Honore et al.), Table 1
# [1] = biological target: kainate site (non-NMDA receptor); experiment: Kainate site (non-NMDA receptor) binding (London and Coyle), Table 1 'KA'
# CF-1 strain mice = experiment: maximal electroshock (MES) assay in mice; assay type: in vivo; conditions: IV
# Source text: Additionally, a preliminary indicator of in vivo CNS activity related to anticonvulsant activity and potential neuroprotection, is a maximal electroshock (MES) assay in CF-1 strain mice (20-25 g) performed with corneal electrodes by conventional methods as described previously (Krall, et al., Epilepsia, 1988;19:409-428).
# MES (IV) Data for Compound 1 from Table 1 [drawing 23]
Structure (SMILES),IC50 (AMPA receptors),IC50 KA [1],further results
Cc1c([N+](=O)[O-])cc2[nH]c(=O)c(=O)[nH]c2c1CN(C)C(C)C [Compound 7],1.15 µM,8.23 µM,–
Cc1c([N+](=O)[O-])cc2[nH]c(=O)c(=O)[nH]c2c1CNC1CCCCC1 [Compound 5],1.26 µM,5.128 µM,–
CCCN(CCC)Cc1c(C)c([N+](=O)[O-])cc2[nH]c(=O)c(=O)[nH]c12 [Compound 3],1.63 µM,24.93 µM,–

# Further compounds by falling IC50 (AMPA receptors), results first:
IC50 (AMPA receptors),IC50 KA [1],Structure (SMILES),further results
4.64 µM,20.50 µM,CCCCN(CCCC)Cc1c(C)c([N+](=O)[O-])cc2[nH]c(=O)c(=O)[nH]c12 [Compound 4],–
3.23 µM,5.331 µM,Cc1c([N+](=O)[O-])cc2[nH]c(=O)c(=O)[nH]c2c1CN(C)C1CCCCC1 [Compound 6],–
1.5 µM,4.483 µM,Cc1c([N+](=O)[O-])cc2[nH]c(=O)c(=O)[nH]c2c1CN(C)C [Compound 1],"Ataxic (%) (CF-1 strain mice; 3 min, 10 mg/kg): 0%; Protected (%) (CF-1 strain mice; 3 min, 10 mg/kg): 40%; Ataxic (%) (CF-1 strain mice; 3 min, 30 mg/kg): 20%; Protected (%) (CF-1 strain mice; 3 min, 30 mg/kg): 60%; Ataxic (%) (CF-1 strain mice; 30 min, 10 mg/kg): 40%; Protected (%) (CF-1 strain mice; 30 min, 10 mg/kg): 60%; Ataxic (%) (CF-1 strain mice; 30 min, 30 mg/kg): 40%; Protected (%) (CF-1 strain mice; 30 min, 30 mg/kg): 80%"
0.689 µM,6.647 µM,CCN(CC)Cc1c(C)c([N+](=O)[O-])cc2[nH]c(=O)c(=O)[nH]c12 [Compound 2],–
